This is an account of results in patent US10080748B2, “Use of flap inhibitors to reduce neuroinflammation mediated injury in the central nervous system” (Bioscience Pharma Partners, LLC, priority 2014, dated 2018).

Counter-ions that a name gives are not always drawn. Like-named read-outs stand apart in the source and are kept apart here.

Data set [1] deals with leukotriene LTC4 production. The data set is described as follows: LTC4 levels in brain after rat fluid percussion injury (RP LC-MS/MS). The class given is in vivo. The note with it: neutrophil depletion, 0.5 mg/kg IV four days prior to TBI; 1 hour after FPI. As to the method: Craniotomy and lateral fluid percussion injury (FPI) were performed using a previously validated and published procedure. Farias S, et al. J. Neurotraum, 26, 1977-1986, 2009; Frey L. C. et al. J. Neurosci. Methods 177, 267-272, 2009. Throughout the specification animals subjected to this protocol are referred to as having a TBI since this treatment protocol is a TBI model. Briefly, rats were anesthetized with 3-5% isoflurane, isosol, VEDCO Inc., St. Joseph, Mo., via nose cone and mounted in a stereotaxic head frame. A 3 millimeter (mm) craniotomy was created and centered at 3 mm caudal to bregma and 3.5 mm left of the sagittal suture, keeping the exposed dura intact. One steel support screw was embedded in the skull on the contralateral side. A Luer-Lock hub with an inside diameter of 3.5 mm was centered over the craniotomy and bonded to the skull with cyanoacrylate adhesive and capped. Dental acrylic, Snap, Parka, Inc., Edgewood, N.J., was poured around the huh and screw. After the acrylic hardened antibiotic ointment was applied around the cap and the animals were returned to their cages. The next day, approximately 15-20 hours later, animals were anesthetized with isoflurane in an induction chamber, immediately connected to the FPI apparatus, and received a 20 millisecond (ms) pulse of pressurized sterile saline at 2.7 atmospheres (atm) of pressure to simulate a moderate severity impact on the intact dural surface through the craniotomy before awakening from anesthesia. […] All animals received a subcutaneous injection of the analgesic, buprenorphine, 0.05 milligram/kilogram (mg/kg) Buprenex, prior to craniotomy, and subsequent injections every 12 hours for two days. Moistened food pellets were provided after injury, and all animals were monitored daily for well-being and weight changes.
Two groups of four rats each were subjected to FPI as described above. Four days prior to the FPI, each animal was briefly anesthetized for less than 5 minutes with 3-3.5% isoflurane and administered either NaCl 0.9%, 2 ml/kg IV (vehicle) or vinblastine sulfate 0.5 mg/kg IV in an identical volume. Neutrophil depletion was verified by complete cell blood counts (CBC) in vinblastine treated animals 4 days after administration. Both groups were euthanized by decapitation and the brain lipids extracted 1 hour after FPI. The amounts of LTC4 formed, measured by RP LC-MS/MS and normalized per milligram of protein, were compared between groups using one-way analysis of variance and the Student-Newman-Keuls test for multiple comparisons.
The indole FLAP inhibitor MK-886 was prepared at a dose of 2.5 milligram/milliliter (mg/ml), dissolved in dimethyl sulfoxide (DMSO) and then diluted with 0.9% saline to 10% DMSO. The rats were briefly anesthetized with 3-3.5% isoflurane and either […] at a dose of 6 mg/kg or vehicle was administered intravenously (IV) by tail vein injection. All animals were allowed to wake before undergoing additional procedures.
Cortical and hippocampal regions from ipsilateral and contralateral hemispheres were collected in 4 ml of 80% methanol, homogenized with a Dounee homogenizer, and internal standards were added to the homogenates. Protein content was measured using bicinchoninic acid assay (BCA) for protein to normalize lipid levels to the amount of tissue. Samples were centrifuged and the supernatant was collected. Samples were diluted to a final methanol concentration of lower than 15% and then the lipids were extracted using a solid phase extraction cartridge, Strata C18-E, 100 mg/1 ml, Phenomenex, Torrence Calif. The eluate, 1 ml of methanol, was dried down and reconstituted in 70 microliters (μl) of High Performance Liquid Chromotography (HPLC) solvent A, which is 8.3 mM acetic acid buffered to pH 5.7 with NH4OH, plus […] of solvent B, which is acetonitrile/methanol, 65/35, v/v. […]

Data set [2] concerns Primary neurons cultured from newborn rats. The data set is described as follows: Apoptosis of primary neurons in vitro. Here is the method:
Primary neurons cultured from newborn rats were incubated in the presence of increasing concentrations of LTC4 or LTD4 for 16 hours.

For data set [3] the following is noted: cited from earlier work.
The conditions of data set [4]: cited from earlier work. This is another data set of the same source.
Data set [5] can be described thus: Brain and plasma levels 30 minutes after intraperitoneal administration. The class given is in vivo, rat. Conditions: intraperitoneal 10 mg/kg in 20% DMSO/saline; 30 minutes post-dosing. Here is the method: The rats were injected intraperitoneally with MK-591 (10 mg/kg in 20% DMSO/saline solution). At 30 minutes post-dosing, blood was collected from anesthetized animals using a heparanized needle and plasma was separated from blood by centrifugation. The animals were then perfused with saline, while still under anesthesia, to remove drug in the blood of the cerebrovasculature. After perfusion the animals were euthanized and brain hemispheres were rapidly removed. Both plasma and brain tissue samples were frozen in liquid nitrogen followed by storage at −80° C. Drug levels in the peripheral plasma and brain were assessed using a validated tandem RP-LC/MS/MS platform. […] Using the conversion of 1 ml=1 gm. The total volume of blood was 2 ml (or […]). The total weight of the brain hemisphere (minus cerebellum) is […]. Values are expressed in ng of MK-591/mg tissue.

The subject of data set [6] is mice subjected to CHI (mTBI model). The experiment in a line: GFAP and Iba-1 immunohistochemical staining, mouse closed head injury (CHI) model. It is filed as in vivo. Conditions: 5 mg/kg IP once daily for 6 days after CHI; 7 dpi.
Data set [7] concerns human whole blood. The data set is described as follows: Human whole blood bioassay of LTB4, 5-HETE and AA production. It is filed as cell-based. The text has this: The results are for the effects of these two FLAP inhibitors on LTB4 production and 5-HETE production. It is known that indole-acetic acid FLAP inhibitors like MK-886, MK-591 display high plasma protein binding. Thus, the potencies of these FLAP inhibitors for blocking leukotrienes in vivo are about 100 fold higher than the affinity of the inhibitors for FLAP binding. The inventors developed a bioassay that closely predicts the in vivo potency of FLAP inhibitors using human whole blood. Briefly, whole blood is incubated with a calcium ionophore like […] or zymosan in the absence or presence of increasing concentrations of a FLAP inhibitor. After incubation at 37° C. for 30 minutes, the samples are centrifuged and the plasma supernatant is subjected to reverse phase liquid chromatography coupled to tandem mass spectrometry to quantify levels of LTB4, 5-HETE, and AA production. Drug IC50 values are determined by non-linear regression analysis (GraphPad Prism).). […] As FLAP inhibitors are poorly water soluble drugs, the inventors have shown that such hydrophobic drugs can be formulated in a carrier comprising one or more vegetable oils, such as olive oil, and phosphatidylserine that are found on the Generally Accepted as Safe (GRAS) list and that such drugs can then be rapidly delivered and targeted to the brain and upper spinal cord. Hanson L R, et al, Drug Delivery 19(3):149-54, 2012.

Data set [8] in a line: Brain and plasma levels 30 minutes after intranasal administration. The class given is in vivo, rat. Conditions: intranasal 60 micrograms/32 ul lipid carrier, 30 minutes post-dosing. As to the method: For intranasal delivery and subsequent tissue collection, rats were anesthetized with 3.5% isoflurane and placed in a supine position on top of a heating pad. The quinoline-indole FLAP inhibitor MK-591, 60 micrograms (μg) formulated with a lipid carrier was administered using a P20 pipette. Specifically, 4 μl drops were formed at the pipette tip and lowered to alternating nostrils every two minutes until a total of eight 4 μl drops were administered. At 30 minutes after the start of intranasal delivery, blood was collected from the heart, and rats were transcardially perfused with 60 ml ice-cold 0.9% NaCl followed by 360 ml 4% paraformaldehyde at 15 ml/minute. Brain tissues were dissected into anatomical regions on ice, weighed, snap-frozen in liquid N2, and stored at −70° C. until analysis. The levels of MK-591 in tissues and plasma were measured by tandem mass spectroscopy.
The MK-591 was formulated in a lipid carrier solution as described above. […] The rats were briefly anesthetized with 3.5% isoflurane and intranasal MK-591 (60 micrograms/32 ul lipid carrier) was administered in eight 4 ul aliquots to the nasal mucosa alternating between each nostril. The amount of drug was determined with the goal of reaching 200 nM concentration of drug which corresponds to 100× the Kd value for binding to FLAP. At 30 minutes post-dosing, blood was collected from anesthetized animals using a heparanized needle and plasma was separated from blood by centrifugation. The animals were then perfused with saline, while still under anesthesia, to remove drug in the blood of the cerebrovasculature. After perfusion the animals were euthanized and brain regions were rapidly removed. Both plasma and brain tissue samples were frozen in liquid nitrogen followed by storage at −80° C. Drug levels in the peripheral plasma and parenchymal brain tissues were assessed using a validated tandem mass spectroscopy platform. Values are expressed in ng of MK-591/mg tissue. […] The concentration of MK-591 in the cortex was 200 nM, the target concentration.

For `CC[C@]1(O)C[C@@H]2CN(CCc3c([nH]c4ccccc34)[C@@](C(=O)OC)(c3cc4c(cc3OC)N(C)[C@H]3[C@@](O)(C(=O)OC)[C@H](OC(C)=O)[C@]5(CC)C=CCN6CC[C@]43[C@@H]65)C2)C1` [vinblastine, vinblastine sulfate], the “leukotriene production in the ipsilateral hemisphere” value in data set [1] is recorded as “markedly reduced”.

Consider `CCCCC/C=C\C\C=C/C=C/C=C/[C@@H](SC[C@H](N)C(=O)NCC(=O)O)[C@@H](O)CCCC(=O)O` [LTD4, leukotriene D4], for which the neuronal apoptosis result in data set [2] is reported as “induce neuronal apoptosis”.

Consider `CC(C)(C)Sc1c(CC(C)(C)C(=O)O)n(Cc2ccc(Cl)cc2)c2ccc(OCc3ccc4ccccc4n3)cc12` [MK-591], for which, in data set [3], the “t1/2 compared with MK-886” value is listed as “longer”. The plasma protein binding result in data set [4] is reported as “high”. Further, the “distribution between plasma and brain tissue” value in data set [5] is “most of the drug was in the plasma with much lower levels found in brain tissue”. Moreover, in data set [6], the “GFAP staining in cerebral cortex, external capsule and dentate gyrus” value is given as “significantly blocked the increase”; the “Iba-1 staining in cerebral cortex, external capsule and dentate gyrus” value is “significantly blocked the increase”. Also, the “potency compared with MK-886” value in data set [7] is given as “more potent”. Besides, the AA production entry in data set [7] (human whole blood, data not shown) is recorded as “neither of the FLAP inhibitors effected AA production”. For the same compound, in data set [8], the “brain localization (rank of regions by level)” value was “highest level of MK-591 was detected in the olfactory bulbs, followed by the hippocampus, and cortex”; the “levels of drug in plasma versus brain” value is “lower than the amount of drug reaching the brain”. Also, the concentration at 30 min in data set [8] (rat, brain cortex, other: intranasal) stood at 200 nM.

In the case of `CCCCC/C=C\C\C=C/C=C/C=C/[C@@H](SC[C@H](NC(=O)CC[C@H](N)C(=O)O)C(=O)NCC(=O)O)[C@@H](O)CCCC(=O)O` [LTC4, leukotriene C4], the neuronal apoptosis entry in data set [2] (increasing concentrations, 16 hours, dose-dependent) is given as “induce neuronal apoptosis”.
